Experimental data taken from paper PMC3671673, “In Vitro Morphological Assessment of Apoptosis Induced by Antiproliferative Constituents from the Rhizomes of Curcuma zedoaria” (Evidence-based Complementary and Alternative Medicine : eCAM, 2013).
In brackets after ≈: the same amount, converted by molar mass. Marks after values point to notes of the source that are not given here.

What was measured:
[1] = test system: colon carcinoma cell line (HCT-116); experiment: Neutral red cytotoxicity assay, HCT-116; format: cell-based; conditions: Homo sapiens, isolated compounds, 72 h, mean ± SD of three replicates, read-out: IC50 (μg/mL) HCT-116
Method: The human cancer cells KB, Ca Ski, MCF-7, HCT-116, A549, and noncancer human cell lines (MRC-5) were purchased from the American Tissue Culture Collection (ATCC, USA). The supplemented RPMI 1640 media and eagle minimum essential medium (EMEM) were purchased from Sigma-Aldrich, USA. The supplements or antibiotics such as foetal bovine serum (FBS), penicillin/streptomycin (P/S) (100 μg/mL), amphotericin B (50 μg/mL), and accutase were purchased from PAA Laboratories, Austria. Sodium pyruvate (11 mg/mL) purchased from Sigma-Aldrich, USA. The cells were cultured in a SHEL LAB water-jacketed CO2 incubator with […] tissue culture flasks (Nunc, Denmark), which was observed routinely under inverted microscope (Leica DMI3000 B, Germany) for any contamination and seeded into 96-well flat bottom microtiter plate (Nunc, Denmark). The extract or pure compounds was dissolved in dimethyl sulfoxide (DMSO, Molecular Biology Grade, >99.9%) from Sigma-Aldrich, USA. Microtiter plate incubator shaker (LT Biomax 500) was used and absorbance was measured at 540 nm using an ELISA microplate reader (EMax microplate reader of Molecular Devices, USA). MCF-7 and Ca Ski were cultured in RPMI 1640 media supplemented with 10% v/v FBS, P/S, and amphotericin B and MRC-5 in EMEM media with 10% v/v FBS, P/S, amphotericin B, and sodium pyruvate. The cells were cultured in tissue culture flask in 5% CO2 incubator kept at 37°C in a humidified atmosphere and observed routinely under inverted microscope from any contaminations. Each fresh medium was replaced every 2 or 3 days until cell confluence was achieved and the cells were detached by using accutase.
The in vitro cytotoxicity activity was performed using the neutral red cytotoxicity assay based on the initial protocol as described earlier with some modifications. Briefly, cells were detached from the tissue culture flask with 1.0 mL solution of accutase and PBS solution. The cell pellet was obtained by centrifugation at 1,000 rpm for 5 minutes. The density of the viable cells was counted by 0.4% of trypan blue exclusion in a haemocytometer. Cells were then plated in 96-well microtiter plate (Nunc), at a concentration of 1 × 10^4 cells/well and incubated in a CO2 incubator at 37°C to allow the cells to adhere. After 24 h, the cells were treated with six different concentrations, that is, 1, 10, 25, 50, 75, and 100 μg/mL of each tested agent in three replicates. The plates were incubated for 72 h at 37°C in a 5% CO2 incubator. The untreated cells were regarded as a negative control, whilst cells incubated only with DMSO (0.5%, v/v) were used as a vehicle control. No effect due to the DMSO was observed. Doxorubicin was used as the positive control. After 72 h, the old medium was substituted with fresh medium containing 50 μg/mL neutral red. The 96-well plates were placed into incubator for 3 h. This is to allow the uptake of the vital dye into the lysosomes of viable and undamaged cells. Then, the media was discarded and cells were washed with 200 μL of neutral red washing solution. The dye was eluted from the cells by adding neutral red resorb solution (200 μL). The plate was further incubated for 30 min with rapid agitation on a microtiter plate shaker. The optical density (OD) of the eluted dye was read at 540 nm using a microplate reader. The experiments were conducted in triplicates. […] Cytotoxicity of each test agent is expressed as IC50 value. […]

[2] = test system: active caspase-3 in HCT-116 cells; experiment: Flow cytometric active caspase-3 assay, HCT-116; format: cell-based, human
Method: Caspases are key mediators of cell death. Caspase-3 activity assay was performed using FITC Active Caspase-3 Apoptosis Kit (BD Pharmingen). These probes bind covalently and irreversibly to the active site of the active caspase heterodimer emitting the green fluorescent signal detected by the FL-1 channel. Briefly, the cancer cells were treated with curzerenone (25, 40, and 50 μg/mL) and alismol (12.5, 25, and 40 μg/mL) for 48 h. The assay was performed based on the manufacturer's protocol. Cells were analyzed using BD Accuri C6 flow cytometry and BD CFlow software.

Ca Ski cells = experiment: Hoechst 33342/PI dual staining, quantification of apoptotic/necrotic cells, Ca Ski; format: cell-based, human; conditions: 48 h
Method: (§1) Briefly, cells were grown on tissue culture dishes and treated with or without tested compounds at concentrations of 12.5, 25, 40, and 50 μg/mL. After 48 hours, the cells were harvested and washed with cold PBS to a density of 5 × 10^5 cells/mL. The cells were suspended in Hoechst 33342 solution (10 μg/mL) and were incubated at 37°C in CO2 for 7 minutes. After incubation with Hoechst 33342, the cells were counter stained with propidium iodide (2.5 μg/mL). The samples were maintained in the dark for 15 minutes. After staining, an aliquot of cell suspension was placed on a glass microscope slides. The slides were observed immediately under inverted fluorescence microscope (DM16000B, Germany) using UV/488 dual excitation and the fluorescence was measured at ~460 nm emission of Hoechst 33342 dye and >575 nm emission of propidium iodide at 630x magnification. At least 200 total target cells were counted and the numbers of each four cellular states were recorded and analyzed using fluorescence microscopy for quantification of apoptosis and necrosis. The experiment was conducted in triplicates. The percentages of apoptotic and necrotic cells were determined according to the following formula [27]: (1) Percentage of Apoptotic Cells (%) =(LA+DA)/ LN+LA+DN+DA×100,Percentage of Necrotic Cells (%) = DN/LN+LA+DN+DA×100, where LN are live target cells with normal nuclei (Hoechst 33342/PI: blue chromatin with organized structure), LA are live cells with apoptotic nuclei (Hoechst 33342/PI: bright blue chromatin that is highly condensed or fragmented), DN are dead cells with normal nuclei (Hoechst 33342/PI: pink chromatin with organized structure), and DA are dead cells with apoptotic nuclei (Hoechst 33342/PI: bright pink chromatin that is, highly condensed or fragmented).

HCT-116 cells = experiment: Hoechst 33342/PI dual staining, quantification of apoptotic/necrotic cells, HCT-116; format: cell-based, human; conditions: 48 h
Method: as §1

SMILES | IC50 [1] [µg/mL] | Percentage of apoptotic cells (%) (Ca Ski cells; 12.5 μg/mL) | Percentage of necrotic cells (%) (Ca Ski cells; 12.5 μg/mL) | Percentage of apoptotic cells (%) (Ca Ski cells; 25 μg/mL) | Percentage of necrotic cells (%) (Ca Ski cells; 25 μg/mL) | Percentage of apoptotic cells (%) (Ca Ski cells; 40 μg/mL) | Percentage of necrotic cells (%) (Ca Ski cells; 40 μg/mL) | Percentage of apoptotic cells (%) (Ca Ski cells; 50 μg/mL) | Percentage of necrotic cells (%) (Ca Ski cells; 50 μg/mL) | Percentage of apoptotic cells (%) (HCT-116 cells; HCT-116, 12.5 μg/mL) | Percentage of necrotic cells (%) (HCT-116 cells; HCT-116, 12.5 μg/mL) | Percentage of apoptotic cells (%) (HCT-116 cells; HCT-116, 25 μg/mL) | Percentage of necrotic cells (%) (HCT-116 cells; HCT-116, 25 μg/mL) | Percentage of apoptotic cells (%) (HCT-116 cells; HCT-116, 40 μg/mL) | Percentage of necrotic cells (%) (HCT-116 cells; HCT-116, 40 μg/mL) | Percentage of apoptotic cells (%) (HCT-116 cells; HCT-116, 50 μg/mL) | Percentage of necrotic cells (%) (HCT-116 cells; HCT-116, 50 μg/mL) | other results
C=C1CCC(C(C)C)=CC2C1CC[C@@]2(C)O (stereo partly drawn) [Alismol, alismol] | 9 ± 0.9 (≈ 40.8 µM) | 8.83 ± 0.58^a % | 5.83 ± 1.50^a % | 53.67 ± 1.76^d % | 14.00 ± 3.50^b % | 41.67 ± 0.76^c % | 45.33 ± 0.60^c % | 32.67 ± 1.04^b % | 60.33 ± 1.00^d % | 48.83 ± 1.61^b % | 19.50 ± 1.00^a % | 55.33 ± 3.01^b % | 26.00 ± 1.30^b % | 21.33 ± 2.02^a % | 67.67 ± 2.60^c % | 19.00 ± 0.87^a % | 76.67 ± 0.80^d % | highest increment of caspase-3 activity ([2]; HCT-116, 40 μg/mL, 48 h): 45 folds; Percentage of apoptotic cells (%) (Ca Ski cells; 25 μg/mL, listed as alismol): 53.7 ± 1.8%; Percentage of necrotic cells (%) (Ca Ski cells; 50 μg/mL, listed as alismol): 60.3 ± 1.0%; Percentage of apoptotic cells (%) (HCT-116 cells; HCT-116, 25 μg/mL, listed as alismol): 55.3 ± 3.0%; Percentage of necrotic cells (%) (HCT-116 cells; HCT-116, 50 μg/mL, listed as alismol): 76.7 ± 0.8%
C=CC1(C)Cc2occ(C)c2C(=O)C1C(=C)C (stereo not drawn) [Curzerenone, curzerenone] | 53 ± 1.5 (≈ 230 µM) | 4.82 ± 0.59^a % | 3.50 ± 1.30^a % | 7.89 ± 1.77^b % | 5.57 ± 1.10^b % | 39.67 ± 1.89^c % | 11.83 ± 2.10^c % | 54.67 ± 1.76^d % | 16.33 ± 1.0^d % | 45.00 ± 0.5^a % | 9.00 ± 1.50^a % | 50.00 ± 0.5^b % | 15.33 ± 0.80^b % | 46.5 ± 1.44^a % | 25.00 ± 0.50^c % | 49.17 ± 1.4^b % | 28.00 ± 0.50^d % | highest increment in caspase-3 activity compared to untreated cells ([2]; HCT-116, 48 h, concentration not given): 100 folds; Percentage of apoptotic cells (%) (Ca Ski cells; 50 μg/mL, listed as curzerenone): 54.7 ± 1.8%; Percentage of apoptotic cells (%) (HCT-116 cells; HCT-116, 25 μg/mL, listed as curzerenone): 50.0 ± 0.5%
